The values that follow come from patent US11661453B2 (Tesaro, Inc., priority 2017, dated 2023).

Data set [1] relates to non-small-cell lung cancer, melanoma, and renal-cell cancer. The conditions noted are these: Phase I clinical trial; cited from earlier work.
The subject of a further data set is PARP activity. The conditions noted are these: PARP activity stimulated by DNA damage caused by hydrogen peroxide, various cell lines, cited from earlier work.
The next data set relates to DLD1 BRCA2−/− cells. The conditions noted are these: 300 nM for 24 or 48 hours. From the text: (§1) The cells were subsequently analyzed for expression of Stimulator of Interferon Genes (STING) pathway proteins via Western blotting.
A further data set deals with MDA-MB-436 cells.
Description: as §1

Data set [2] relates to MDA-MB-436, CAPAN-1, GRANTA-519, OVCAR3, HT29, DLD-1, patient derived Ewing's sarcoma and TNBC xenograft models. The note with it: xenograft models in mice; cited from earlier work.
Data set [3] deals with cancer cell lines that have been silenced for BRCA-1 or BRCA-2, or carry BRCA-1 or BRCA-2 mutations. The note with it: cited from earlier work.
The test system of the next data set is normal human cells. The note with it: cited from earlier work.
The test system of data set [4] is KrasG12D and PTEN null bladder (BL6078). Kind of data set: Tumor growth inhibition, Kras G12D and PTEN null bladder model. The note with it: mouse, in vivo. From the text:
(§2) A panel of 14 syngeneic or humanized xenograft models representing BRCA-proficient (wild-type) and BRCA-deficient (mutant) cancers derived from breast, lung, ovary, skin, sarcoma, bladder and colon tumors was established. The panel included the following genetically engineered mouse tumor models: 1) KrasG12D and PTEN null bladder (BL6078), 2) TP53 null sarcoma (SA9003), 3) MMTV-LPA1 breast (LPA-T22), 4) BRCA1 mutant breast (MDA-MB-436; also referred to as MM-436), 5) APC^Min heterozygous mutant skin (SK6005), and 6) BRCA1−/−, TP53−/−, KrasG12D ovarian (BRKras) models. While the bladder syngeneic model was BRCA1 wild-type, the sarcoma model harbored BRCA1 A122E and S123X heterozygous mutations. Specifically, mice were administered treatments after tumors reached 50-150 mm^3. […] The suboptimal dose administered for specific tumor models was as follows: 35 mg/kg daily for 5 consecutive days per week (QD×5/week) for the BR1126 tumor model, 35 mg/kg (QD×5/week) for the MDA-MB-436 tumor model, 30 mg/kg for the BRKras tumor model, and 25 mg/kg daily for the SK6005 tumor model. The anti-PD-1 antibody (RMP1-14/2C4) or the anti-PD-L1 antibody (10F.9G2) was administered twice weekly intraperitoneally at 10 mg/kg dose unless otherwise noted. […] Tumor growth was monitored twice per week.

Data set [5] concerns MMTV-LPA1 breast (LPA-T22). Description: Tumor growth inhibition, syngeneic MMTV-LPA1 breast model. The data set is classed as in vivo, mouse. The note with it: niraparib orally once daily, antibody intraperitoneally twice weekly.
Description: as §2

The test system of data set [6] is TP53 null sarcoma (SA9003). Description: Tumor growth inhibition, TP53 null sarcoma model. The data set is classed as in vivo, mouse. The conditions noted are these: niraparib orally once daily, antibody intraperitoneally twice weekly.
Description: as §2

Data set [7] concerns selected Ewing's sarcoma, ALL, NSCLC and SCLC cell lines, tumor cell lines carrying homozygous inactivation of the ATM gene. The conditions noted are these: cited from earlier work.

Consider “nivolumab: anti-PD-1 monoclonal antibody (Human IgG4)”, for which the clinical response result in data set [1] is listed as “complete or partial responses”.
By IC50 is commonly meant the concentration that gives 50% inhibition. Take `NC(=O)c1cccc2cn(-c3ccc([C@@H]4CCCNC4)cc3)nc12` [Niraparib, (3 S)-3-[4-{7-(aminocarbonyl)-2H-indazol-2-yl}phenyl]piperidine]: in the data set on PARP activity (read-out: IC50 of PARP activity in cell lines), the IC50 is roughly 4 nM. Also, in the data set with PARP activity (read-out: inhibitory concentration at 90% of control (IC90) of PARP activity in cell lines), the IC90 was roughly 50 nM. The “mRNA expression of type-I interferon (IFNB1 or IFNA1)” value in the data set with DLD1 BRCA2−/− cells is recorded as “detected”. Further, the “mRNA expression of type-I interferon (IFNB1)” value in the data set with MDA-MB-436 cells (300 nM for 24 or 48 hours) was “detected”. Besides, the “expression of STING pathway proteins (p-STING, STING, p-TBK1, TBK1, p-NF-κB p65, NF-κB p65)” value in the data set on MDA-MB-436 cells (1 μM for 48 hours, Western blotting) is listed as “expression of STING pathway proteins”. For the same compound, the “antitumor activity in vivo” value in data set [2] is “strong antitumor activity”. Further, the “consequence on cell cycle” value in data set [3] (BRCA-defective cells) is on record as “cell cycle arrest in G2/M followed by apoptosis”. The anti-proliferative activity entry in data set [3] (compared to wild type counterparts) is “selective anti-proliferative activity”. Moreover, in the data set with normal human cells, the “activity on normal human cells” value was “weak activity”. For the same compound, in data set [4], the response to monotherapy entry is “neither responsive”. Besides, the “tumor growth inhibition (TGI)” value in data set [5] was determined as 45%; in data set [6] it was 1%. The cytotoxicity result in data set [7] is listed as “selectively cytotoxic”.
